20 compounds from patent publication US20070072897A1, “Phenylaminopropanol derivatives and methods of their use” (Wyeth, priority 2005, published 2007) can be followed below.

SMILES strings stand for the structures. Where a name gives a salt, the structure may show the parent alone.

One assay has as its target T1, human hNET (Homo sapiens, UniProt P23975).
T1 construct: expressed in transfected cells; host or cells: MDCK (MDCK-Net6)
The assay can be described thus: Norepinephrine (NE) uptake assay in MDCK-Net6 cells. The format is cell-based. The settings on record: [3H]NE uptake; for inhibition at 1 µM: MDCK-Net6 cells, read-out: hNET Percentage inhibition at 1 μM; for EC50: MDCK-Net6 cells stably transfected with hNET.

In a further assay the target is T2, human 5-HT2A receptor (Homo sapiens, UniProt P28223).
T2 construct: expressed in transfected cells; host or cells: CHO
The assay can be described thus: 5-HT2A FLIPR assay (calcium response to DOI) in CHO cells. The format is cell-based. Conditions: for IC50: antagonist inhibition of 3 nM DOI stimulation, CHO cells, FLIPR; for inhibition at 1 µM: CHO, read-out: 5-HT2A Percentage inhibition at 1 μM. In outline: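 CHO cells loaded with calcium dye in HBSS/20 mM HEPES; FLIPR fluorescence recorded after compound addition (10^−10–10^−5 M) for 2 min to detect agonism, then after 3 nM DOI challenge for 5 min for antagonism. Data log transformed before analysis.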

What is called inhibition is the percentage by which the read-out fell short of the control. What is called IC50 is the point on the concentration scale where inhibition reaches its midpoint. By EC50 is commonly meant the concentration at which the effect is half-maximal. A higher EC50 goes with lower potency in that assay.

T2 sequence (P28223 whole entry): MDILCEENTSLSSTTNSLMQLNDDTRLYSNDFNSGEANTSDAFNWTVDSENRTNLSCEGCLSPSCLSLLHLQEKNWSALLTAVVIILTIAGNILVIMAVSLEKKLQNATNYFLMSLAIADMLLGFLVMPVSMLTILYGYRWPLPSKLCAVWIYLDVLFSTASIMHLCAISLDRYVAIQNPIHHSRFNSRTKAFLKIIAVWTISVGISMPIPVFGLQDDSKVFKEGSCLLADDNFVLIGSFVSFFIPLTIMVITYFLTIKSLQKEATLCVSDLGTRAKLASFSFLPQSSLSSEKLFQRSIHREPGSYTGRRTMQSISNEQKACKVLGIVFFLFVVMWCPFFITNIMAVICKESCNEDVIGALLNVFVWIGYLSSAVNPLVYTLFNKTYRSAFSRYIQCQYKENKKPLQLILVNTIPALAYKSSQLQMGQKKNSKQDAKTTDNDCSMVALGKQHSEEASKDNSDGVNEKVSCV
T1 sequence (P23975 whole entry): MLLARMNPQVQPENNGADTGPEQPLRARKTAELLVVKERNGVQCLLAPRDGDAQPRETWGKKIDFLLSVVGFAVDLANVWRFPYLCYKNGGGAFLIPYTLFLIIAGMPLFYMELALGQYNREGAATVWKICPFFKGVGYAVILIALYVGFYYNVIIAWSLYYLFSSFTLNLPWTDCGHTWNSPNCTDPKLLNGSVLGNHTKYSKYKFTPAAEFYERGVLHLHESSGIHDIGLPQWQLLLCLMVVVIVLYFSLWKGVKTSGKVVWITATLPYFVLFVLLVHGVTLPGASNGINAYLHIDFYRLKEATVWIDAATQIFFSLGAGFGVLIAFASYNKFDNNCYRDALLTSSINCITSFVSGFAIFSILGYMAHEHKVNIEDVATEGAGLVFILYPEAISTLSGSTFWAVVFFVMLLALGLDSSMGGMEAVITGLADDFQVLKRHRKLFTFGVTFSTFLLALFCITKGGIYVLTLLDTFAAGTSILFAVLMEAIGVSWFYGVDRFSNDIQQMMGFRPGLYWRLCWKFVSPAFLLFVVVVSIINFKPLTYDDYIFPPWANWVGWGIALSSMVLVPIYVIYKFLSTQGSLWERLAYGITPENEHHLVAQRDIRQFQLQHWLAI

Take `CN(C)C[C@@H](O)[C@H](c1ccccc1)n1ccc2cc(OCc3ccccc3)ccc21` [Example 86, (1S,2R)-1-[5-(benzyloxy)-1H-indol-1-yl]-3-(dimethylamino)-1-phenylpropan-2-ol hydrochloride]: the inhibition at 1 µM at human hNET worked out at 22%. Moreover, at human 5-HT2A receptor, the IC50 came to 263 nM.
The matching figures for `CCN(C)C[C@@H](O)[C@H](c1ccccc1)n1ccc2cc(OCc3ccccc3)ccc21` [Example 87, (1S,2R)-1-[5-(benzyloxy)-1H-indol-1-yl]-3-[ethyl(methyl)amino]-1-phenylpropan-2-ol hydrochloride]: 16% and 1120 nM.
On to `CCN(CC)C[C@@H](O)[C@H](c1ccccc1)n1ccc2cc(OCc3ccccc3)ccc21` [Example 88, (1S,2R)-1-[5-(benzyloxy)-1H-indol-1-yl]-3-(diethylamino)-1-phenylpropan-2-ol hydrochloride], for which the inhibition at 1 µM on human hNET was determined as 21%; on human 5-HT2A receptor, 33%.
For `O[C@H](CN1CCCC1)[C@H](c1ccccc1)n1ccc2cc(OCc3ccccc3)ccc21` [Example 89, (1S,2R)-1-[5-(benzyloxy)-1H-indol-1-yl]-1-phenyl-3-pyrrolidin-1-ylpropan-2-ol hydrochloride], the results for the inhibition at 1 µM at human hNET and on human 5-HT2A receptor were 14% and 32%, respectively.
The matching figures for `O[C@H](CN1CCCCC1)[C@H](c1ccccc1)n1ccc2cc(OCc3ccccc3)ccc21` [Example 90, (1S,2R)-1-[5-(benzyloxy)-1H-indol-1-yl]-1-phenyl-3-piperidin-1-ylpropan-2-ol hydrochloride]: 12% and 25%.
The matching figures for `CN1CCN(C[C@@H](O)[C@H](c2ccccc2)n2ccc3cc(OCc4ccccc4)ccc32)CC1` [Example 91, (1S,2R)-1-[5-(benzyloxy)-1H-indol-1-yl]-3-(4-methylpiperazin-1-yl)-1-phenylpropan-2-ol hydrochloride]: 22% and 29%.
For `CNC[C@@H](O)[C@H](c1ccccc1)n1ccc2cc(C#Cc3ccccc3)ccc21` [Example 93, (1S,2R)-3-(methylamino)-1-phenyl-1-[5-(phenylethynyl)-1H-indol-1-yl]propan-2-ol hydrochloride], it took 287 nM to reach a half-maximal effect on human hNET (EC50). Further, the inhibition at 1 µM at human 5-HT2A receptor was 36%.
For the compound `CNC[C@@H](O)[C@H](c1ccccc1)n1ccc2cc(CCc3ccccc3)ccc21` [Example 94, (1S,2R)-3-(methylamino)-1-phenyl-1-[5-(2-phenylethyl)-1H-indol-1-yl]propan-2-ol hydrochloride], the midpoint of the response at human hNET, the EC50, lay at 86 nM. Besides, the IC50 on human 5-HT2A receptor was found to be 636 nM.
Regarding `NC[C@@H](O)[C@H](c1ccccc1)N1C(=O)C2(CCCCC2)c2ccc(F)cc21` [Example 95, 1′-[(1S,2R)-3-amino-2-hydroxy-1-phenylpropyl]-6′-fluorospiro[cyclohexane-1,3′-indol]-2′(1′H)-one hydrochloride], the inhibition at 1 µM on human hNET came out at 7%; on human 5-HT2A receptor it was 44%.
Take `CCNC[C@@H](O)[C@H](c1ccccc1)N1C(=O)C2(CCCCC2)c2ccc(F)cc21` [Example 96, 1′-[(1S,2R)-3-(ethylamino)-2-hydroxy-1-phenylpropyl]-6′-fluorospiro[cyclohexane-1,3′-indol]-2′(1′H)-one hydrochloride]: the inhibition at 1 µM on human hNET is 48%. Besides, the half-inhibitory concentration (IC50) at human 5-HT2A receptor was 462 nM.
Regarding `CC(C)NC[C@@H](O)[C@H](c1ccccc1)N1C(=O)C2(CCCCC2)c2ccc(F)cc21` [Example 97, 6′-fluoro-1′-[(1S,2R)-2-hydroxy-3-(isopropylamino)-1-phenylpropyl]spiro[cyclohexane-1,3′-indol]-2′(1′H)-one hydrochloride], the inhibition at 1 µM at human hNET came out at 0%; on human 5-HT2A receptor, 44%.
`CCCNC[C@@H](O)[C@H](c1ccccc1)N1C(=O)C2(CCCCC2)c2ccc(F)cc21` [Example 98, 6′-fluoro-1′-[(1S,2R)-2-hydroxy-1-phenyl-3-(propylamino)propyl]spiro[cyclohexane-1,3′-indol]-2′(1′H)-one hydrochloride]: the inhibition at 1 µM at human hNET turned out to be 0%. On human 5-HT2A receptor, the 50% inhibitory concentration (IC50) came out at 672 nM.
On to `NC[C@@H](O)[C@H](c1ccccc1)N1C(=O)C2(CCCCC2)c2cc(F)ccc21` [Example 99, 1′-[(1S,2R)-3-amino-2-hydroxy-1-phenylpropyl]-5′-fluorospiro[cyclohexane-1,3′-indol]-2′(1′H)-one hydrochloride], for which the inhibition at 1 µM at human hNET is 11%; on human 5-HT2A receptor, 7%.
Take `CCNC[C@@H](O)[C@H](c1ccccc1)N1C(=O)C2(CCCCC2)c2cc(F)ccc21` [Example 100, 1′-[(1S,2R)-3-(ethylamino)-2-hydroxy-1-phenylpropyl]-5′-fluorospiro[cyclohexane-1,3′-indol]-2′(1′H)-one hydrochloride]: the inhibition at 1 µM at human hNET was 31%. The 50% inhibitory concentration (IC50) at human 5-HT2A receptor was 378 nM.
For the compound `CC(C)NC[C@@H](O)[C@H](c1ccccc1)N1C(=O)C2(CCCCC2)c2cc(F)ccc21` [Example 101, 5′-fluoro-1′-[(1S,2R)-2-hydroxy-3-(isopropylamino)-1-phenylpropyl]spiro[cyclohexane-1,3′-indol]-2′(1′H)-one hydrochloride], the inhibition at 1 µM at human hNET was found to be 0%; on human 5-HT2A receptor, 22%.
`CCCNC[C@@H](O)[C@H](c1ccccc1)N1C(=O)C2(CCCCC2)c2cc(F)ccc21` [Example 102, 5′-fluoro-1′-[(1S,2R)-2-hydroxy-1-phenyl-3-(propylamino)propyl]spiro[cyclohexane-1,3′-indol]-2′(1′H)-one hydrochloride]: on human hNET, the inhibition at 1 µM was determined as 0%. Further, the IC50 on human 5-HT2A receptor was found to be 895 nM.
The matching figures for `CN(C)C[C@@H](O)[C@H](c1ccccc1)N1C(=O)C2(CCCCC2)c2cc(F)ccc21` [Example 103, 1′-[(1S,2R)-3-(dimethylamino)-2-hydroxy-1-phenylpropyl]-5′-fluorospiro[cyclohexane-1,3′-indol]-2′(1′H)-one hydrochloride]: 19% and 77 nM.
As to `O=C1N([C@@H](c2ccccc2)[C@H](O)CN2CCOCC2)c2ccc(F)cc2C12CCCCC2` [Example 104, 5′-fluoro-1′-[(1S,2R)-2-hydroxy-3-morpholin-4-yl-1-phenylpropyl]spiro[cyclohexane-1,3′-indol]-2′(1′H)-one hydrochloride], the figures for the inhibition at 1 µM on human hNET and on human 5-HT2A receptor were 13% and 22%, respectively.
As to `CNC[C@@H](O)[C@H](c1ccccc1)N1C(=O)C2(CCCCC2)c2cc(OC)ccc21` [Example 105, 1′-[(1S,2R)-2-hydroxy-3-(methylamino)-1-phenylpropyl]-5′-methoxyspiro[cyclohexane-1,3′-indol]-2′(1′H)-one hydrochloride], on human hNET, it took 81 nM to reach a half-maximal effect (EC50). In addition, on human 5-HT2A receptor, the inhibition at 1 µM turned out to be 37%.
`CNC[C@@H](O)[C@H](c1ccccc1)N1C(=O)C2(CCCCC2)c2ccc(OC)cc21` [Example 106, 1′-[(1S,2R)-2-hydroxy-3-(methylamino)-1-phenylpropyl]-6′-methoxyspiro[cyclohexane-1,3′-indol]-2′(1′H)-one hydrochloride] yielded an EC50 on human hNET of 908 nM. In addition, the concentration for half-maximal inhibition (IC50) at human 5-HT2A receptor was 615 nM.
